Results as given in ChEMBL document CHEMBL3132769, “Fragment growing to retain or alter the selectivity of anchored kinase hinge-binding fragments” (Medchemcomm, 2014).

Columns and labels:
[1] = molecular target: Protein kinase C beta type (Homo sapiens) (UniProt P05771); assay: Inhibition of human full length PKC beta2 expressed in baculovirus assessed as substrate phosphorylation using fluorescence-labelled peptides as substrate at 95 uM after 90 mins by microfluidic peptide phosphorylation assay
[2] = molecular target: Protein kinase C beta type (Homo sapiens) (UniProt P05771); assay: Inhibition of human truncated PKC beta1 expressed in baculovirus assessed as substrate phosphorylation using fluorescence-labelled peptides as substrate at 0.06 uM after 90 mins by microfluidic peptide phosphorylation assay
[3] = molecular target: Platelet-derived growth factor receptor alpha (Homo sapiens) (UniProt P16234); assay: Inhibition of human PDGFR alpha catalytic domain expressed in baculovirus assessed as substrate phosphorylation using fluorescence-labelled peptides as substrate at 0.06 uM after 90 mins by microfluidic peptide phosphorylation assay
[4] = molecular target: Rho-associated protein kinase 2 (Homo sapiens) (UniProt O75116); settings: 0.1 uM
Description: Inhibition of human ROCK2 catalytic domain expressed in baculovirus assessed as substrate phosphorylation using fluorescence-labelled peptides as substrate at 0.1 uM after 90 mins by microfluidic peptide phosphorylation assay

[5] = molecular target: Tyrosine-protein kinase Fyn (Homo sapiens) (UniProt P06241); assay: Inhibition of human full length FYN expressed in baculovirus assessed as substrate phosphorylation using fluorescence-labelled peptides as substrate at […] after 90 mins by microfluidic peptide phosphorylation assay
[6] = molecular target: T1, MAP kinase-activated protein kinase 5 (Homo sapiens) (UniProt Q8IW41); assay: Inhibition of human full length PRAK expressed in baculovirus assessed as substrate phosphorylation using fluorescence-labelled peptides as substrate at […] after 90 mins by microfluidic peptide phosphorylation assay
T1 sequence (whole entry): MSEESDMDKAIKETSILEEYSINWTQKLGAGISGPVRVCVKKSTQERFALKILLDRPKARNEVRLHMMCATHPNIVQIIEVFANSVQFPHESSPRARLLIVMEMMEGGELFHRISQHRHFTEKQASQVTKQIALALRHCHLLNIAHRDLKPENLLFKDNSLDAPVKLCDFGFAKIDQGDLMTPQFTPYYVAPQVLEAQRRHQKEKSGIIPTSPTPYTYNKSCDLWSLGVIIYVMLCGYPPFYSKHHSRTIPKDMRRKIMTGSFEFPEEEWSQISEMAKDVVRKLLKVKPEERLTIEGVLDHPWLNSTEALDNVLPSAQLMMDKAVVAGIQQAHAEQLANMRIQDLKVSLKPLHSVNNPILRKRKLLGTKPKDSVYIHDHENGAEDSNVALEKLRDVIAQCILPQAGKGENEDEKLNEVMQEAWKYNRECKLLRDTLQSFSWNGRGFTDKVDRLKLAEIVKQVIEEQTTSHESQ

[7] = molecular target: T2, Serine/threonine-protein kinase DCLK2 (Homo sapiens) (UniProt Q8N568); assay: Inhibition of human full length DCAMKL2 expressed in baculovirus assessed as substrate phosphorylation using fluorescence-labelled peptides as substrate at […] after 90 mins by microfluidic peptide phosphorylation assay
T2 sequence (whole entry): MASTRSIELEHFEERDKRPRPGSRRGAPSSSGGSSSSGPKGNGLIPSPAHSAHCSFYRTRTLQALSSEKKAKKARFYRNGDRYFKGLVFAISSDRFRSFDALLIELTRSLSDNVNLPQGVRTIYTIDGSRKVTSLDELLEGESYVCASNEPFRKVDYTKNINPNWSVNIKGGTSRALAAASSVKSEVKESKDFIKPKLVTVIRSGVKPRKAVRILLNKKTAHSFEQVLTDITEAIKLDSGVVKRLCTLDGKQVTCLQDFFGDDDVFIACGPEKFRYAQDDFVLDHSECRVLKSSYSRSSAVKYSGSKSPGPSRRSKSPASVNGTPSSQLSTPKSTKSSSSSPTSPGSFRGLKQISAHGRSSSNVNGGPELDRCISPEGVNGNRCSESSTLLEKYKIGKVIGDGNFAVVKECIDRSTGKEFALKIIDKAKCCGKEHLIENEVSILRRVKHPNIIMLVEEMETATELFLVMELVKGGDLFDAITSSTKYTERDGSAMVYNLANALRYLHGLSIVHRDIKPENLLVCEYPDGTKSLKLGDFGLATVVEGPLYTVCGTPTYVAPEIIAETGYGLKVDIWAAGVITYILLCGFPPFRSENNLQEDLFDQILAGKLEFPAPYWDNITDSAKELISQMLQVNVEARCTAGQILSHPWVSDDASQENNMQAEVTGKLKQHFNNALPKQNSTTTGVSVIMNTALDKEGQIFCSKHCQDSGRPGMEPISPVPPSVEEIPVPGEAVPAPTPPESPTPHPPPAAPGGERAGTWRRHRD

[8] = molecular target: Receptor-type tyrosine-protein kinase FLT3 (Homo sapiens) (UniProt P36888); assay: Inhibition of human FLT3 catalytic domain expressed in baculovirus assessed as substrate phosphorylation using fluorescence-labelled peptides as substrate at 420 uM after 90 mins by microfluidic peptide phosphorylation assay
[9] = molecular target: Fibroblast growth factor receptor 3 (Homo sapiens) (UniProt P22607); assay: Inhibition of human FGFR3 catalytic domain expressed in baculovirus assessed as substrate phosphorylation using fluorescence-labelled peptides as substrate at 420 uM after 90 mins by microfluidic peptide phosphorylation assay
[10] = molecular target: Tyrosine-protein kinase Lyn (Homo sapiens) (UniProt P07948); assay: Inhibition of human full length LYN expressed in baculovirus assessed as substrate phosphorylation using fluorescence-labelled peptides as substrate at 420 uM after 90 mins by microfluidic peptide phosphorylation assay
[11] = molecular target: T3, Cytoplasmic tyrosine-protein kinase BMX (Homo sapiens) (UniProt P51813); assay: Inhibition of human full length BMX expressed in baculovirus assessed as substrate phosphorylation using fluorescence-labelled peptides as substrate at 420 uM after 90 mins by microfluidic peptide phosphorylation assay
T3 sequence (whole entry): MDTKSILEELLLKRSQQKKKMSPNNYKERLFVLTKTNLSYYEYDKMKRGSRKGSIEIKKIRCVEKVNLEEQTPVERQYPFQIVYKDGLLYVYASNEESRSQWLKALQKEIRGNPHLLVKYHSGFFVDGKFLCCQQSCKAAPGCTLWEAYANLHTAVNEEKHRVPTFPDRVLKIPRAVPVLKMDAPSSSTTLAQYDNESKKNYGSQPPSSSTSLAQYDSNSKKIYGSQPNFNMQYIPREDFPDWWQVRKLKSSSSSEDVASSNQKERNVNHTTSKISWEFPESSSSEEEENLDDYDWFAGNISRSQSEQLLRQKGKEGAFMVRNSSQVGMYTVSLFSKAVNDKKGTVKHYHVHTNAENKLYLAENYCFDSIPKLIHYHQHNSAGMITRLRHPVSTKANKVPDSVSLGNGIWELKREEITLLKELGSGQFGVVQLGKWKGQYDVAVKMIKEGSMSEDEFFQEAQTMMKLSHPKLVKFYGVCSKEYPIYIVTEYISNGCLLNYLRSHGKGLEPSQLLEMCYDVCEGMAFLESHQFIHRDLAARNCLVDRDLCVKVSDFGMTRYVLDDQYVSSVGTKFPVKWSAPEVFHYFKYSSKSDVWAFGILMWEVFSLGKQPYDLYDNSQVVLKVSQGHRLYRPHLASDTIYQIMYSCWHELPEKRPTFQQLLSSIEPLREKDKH

[12] = molecular target: Protein kinase C alpha type (Homo sapiens) (UniProt P17252); assay: Inhibition of human truncated PKC alpha expressed in baculovirus assessed as substrate phosphorylation using fluorescence-labelled peptides as substrate at 9 uM after 90 mins by microfluidic peptide phosphorylation assay

Sequence of Protein kinase C beta type (Homo sapiens) (P05771 2-671 limits assumed): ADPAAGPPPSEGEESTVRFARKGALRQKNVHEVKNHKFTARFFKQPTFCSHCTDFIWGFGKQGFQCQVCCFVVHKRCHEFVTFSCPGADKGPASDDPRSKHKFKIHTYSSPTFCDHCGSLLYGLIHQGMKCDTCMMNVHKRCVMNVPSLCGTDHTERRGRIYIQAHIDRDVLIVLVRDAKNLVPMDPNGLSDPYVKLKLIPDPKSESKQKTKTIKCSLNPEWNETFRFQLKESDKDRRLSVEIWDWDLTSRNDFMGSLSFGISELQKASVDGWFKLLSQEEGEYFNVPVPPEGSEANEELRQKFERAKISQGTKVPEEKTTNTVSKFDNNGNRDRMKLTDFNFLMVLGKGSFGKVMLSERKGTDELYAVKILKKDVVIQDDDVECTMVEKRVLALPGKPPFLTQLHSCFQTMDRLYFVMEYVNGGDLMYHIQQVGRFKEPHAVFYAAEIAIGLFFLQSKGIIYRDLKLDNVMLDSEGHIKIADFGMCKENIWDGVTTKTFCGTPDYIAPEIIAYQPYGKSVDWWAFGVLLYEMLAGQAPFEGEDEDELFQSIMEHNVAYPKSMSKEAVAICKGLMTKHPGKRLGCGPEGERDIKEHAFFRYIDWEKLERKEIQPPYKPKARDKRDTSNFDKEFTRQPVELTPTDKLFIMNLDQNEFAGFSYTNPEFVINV
Sequence of Rho-associated protein kinase 2 (Homo sapiens) (O75116 whole entry, looked up): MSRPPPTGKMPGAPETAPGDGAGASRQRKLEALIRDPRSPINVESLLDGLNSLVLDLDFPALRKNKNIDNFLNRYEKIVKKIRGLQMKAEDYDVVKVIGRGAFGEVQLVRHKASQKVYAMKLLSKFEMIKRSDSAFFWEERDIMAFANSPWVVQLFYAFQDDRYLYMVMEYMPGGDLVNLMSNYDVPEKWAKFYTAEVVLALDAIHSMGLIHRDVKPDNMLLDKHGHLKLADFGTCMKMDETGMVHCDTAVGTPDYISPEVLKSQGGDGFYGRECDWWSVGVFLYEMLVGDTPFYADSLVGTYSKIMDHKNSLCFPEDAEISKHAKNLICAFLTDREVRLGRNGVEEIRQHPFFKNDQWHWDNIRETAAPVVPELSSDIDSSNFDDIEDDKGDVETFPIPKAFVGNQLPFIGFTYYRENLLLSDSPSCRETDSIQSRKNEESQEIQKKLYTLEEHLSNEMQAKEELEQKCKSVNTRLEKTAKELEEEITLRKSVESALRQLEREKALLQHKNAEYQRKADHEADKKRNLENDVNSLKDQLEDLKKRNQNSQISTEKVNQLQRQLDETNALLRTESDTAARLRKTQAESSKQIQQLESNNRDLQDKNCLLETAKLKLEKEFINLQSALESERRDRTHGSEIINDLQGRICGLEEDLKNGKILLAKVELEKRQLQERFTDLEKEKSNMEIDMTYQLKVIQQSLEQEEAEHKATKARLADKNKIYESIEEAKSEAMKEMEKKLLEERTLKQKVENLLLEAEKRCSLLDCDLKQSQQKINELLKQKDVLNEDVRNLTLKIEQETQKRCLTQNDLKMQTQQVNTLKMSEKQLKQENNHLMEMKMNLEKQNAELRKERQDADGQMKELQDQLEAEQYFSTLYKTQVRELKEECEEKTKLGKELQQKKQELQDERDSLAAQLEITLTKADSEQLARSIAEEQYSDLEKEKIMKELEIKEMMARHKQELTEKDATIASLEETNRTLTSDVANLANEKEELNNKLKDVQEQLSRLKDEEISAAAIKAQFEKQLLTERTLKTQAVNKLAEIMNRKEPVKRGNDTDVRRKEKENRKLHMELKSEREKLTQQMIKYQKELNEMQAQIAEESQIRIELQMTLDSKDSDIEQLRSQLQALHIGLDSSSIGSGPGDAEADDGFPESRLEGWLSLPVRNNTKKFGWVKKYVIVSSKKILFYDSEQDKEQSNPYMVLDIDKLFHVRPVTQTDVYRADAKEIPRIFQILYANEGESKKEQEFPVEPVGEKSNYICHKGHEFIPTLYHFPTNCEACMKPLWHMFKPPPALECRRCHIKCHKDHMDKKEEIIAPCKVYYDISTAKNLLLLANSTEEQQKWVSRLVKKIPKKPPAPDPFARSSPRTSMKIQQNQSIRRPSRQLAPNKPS
Sequence of Fibroblast growth factor receptor 3 (Homo sapiens) (P22607 23-806 limits assumed): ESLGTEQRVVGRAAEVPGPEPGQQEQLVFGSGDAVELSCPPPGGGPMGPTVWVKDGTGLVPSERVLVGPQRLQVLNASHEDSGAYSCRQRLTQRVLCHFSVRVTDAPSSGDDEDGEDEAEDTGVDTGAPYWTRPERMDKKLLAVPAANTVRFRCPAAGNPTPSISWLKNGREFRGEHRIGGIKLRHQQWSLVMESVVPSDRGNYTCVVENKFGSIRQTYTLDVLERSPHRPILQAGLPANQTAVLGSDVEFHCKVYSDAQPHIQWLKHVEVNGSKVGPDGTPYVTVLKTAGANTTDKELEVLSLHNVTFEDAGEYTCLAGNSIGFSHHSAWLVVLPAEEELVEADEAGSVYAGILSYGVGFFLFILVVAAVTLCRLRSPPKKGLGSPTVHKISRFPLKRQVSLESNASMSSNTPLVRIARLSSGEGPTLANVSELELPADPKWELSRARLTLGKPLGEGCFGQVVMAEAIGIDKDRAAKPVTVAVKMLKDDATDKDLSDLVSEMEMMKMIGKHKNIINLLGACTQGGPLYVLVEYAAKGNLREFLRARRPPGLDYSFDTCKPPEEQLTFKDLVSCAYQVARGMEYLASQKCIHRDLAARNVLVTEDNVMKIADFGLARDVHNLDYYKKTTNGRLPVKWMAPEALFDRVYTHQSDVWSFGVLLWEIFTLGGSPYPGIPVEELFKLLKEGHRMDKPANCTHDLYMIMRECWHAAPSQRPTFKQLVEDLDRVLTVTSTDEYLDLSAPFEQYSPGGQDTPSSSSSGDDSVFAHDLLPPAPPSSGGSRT
Sequence of Platelet-derived growth factor receptor alpha (Homo sapiens) (P16234 whole entry, the tested form may be a part): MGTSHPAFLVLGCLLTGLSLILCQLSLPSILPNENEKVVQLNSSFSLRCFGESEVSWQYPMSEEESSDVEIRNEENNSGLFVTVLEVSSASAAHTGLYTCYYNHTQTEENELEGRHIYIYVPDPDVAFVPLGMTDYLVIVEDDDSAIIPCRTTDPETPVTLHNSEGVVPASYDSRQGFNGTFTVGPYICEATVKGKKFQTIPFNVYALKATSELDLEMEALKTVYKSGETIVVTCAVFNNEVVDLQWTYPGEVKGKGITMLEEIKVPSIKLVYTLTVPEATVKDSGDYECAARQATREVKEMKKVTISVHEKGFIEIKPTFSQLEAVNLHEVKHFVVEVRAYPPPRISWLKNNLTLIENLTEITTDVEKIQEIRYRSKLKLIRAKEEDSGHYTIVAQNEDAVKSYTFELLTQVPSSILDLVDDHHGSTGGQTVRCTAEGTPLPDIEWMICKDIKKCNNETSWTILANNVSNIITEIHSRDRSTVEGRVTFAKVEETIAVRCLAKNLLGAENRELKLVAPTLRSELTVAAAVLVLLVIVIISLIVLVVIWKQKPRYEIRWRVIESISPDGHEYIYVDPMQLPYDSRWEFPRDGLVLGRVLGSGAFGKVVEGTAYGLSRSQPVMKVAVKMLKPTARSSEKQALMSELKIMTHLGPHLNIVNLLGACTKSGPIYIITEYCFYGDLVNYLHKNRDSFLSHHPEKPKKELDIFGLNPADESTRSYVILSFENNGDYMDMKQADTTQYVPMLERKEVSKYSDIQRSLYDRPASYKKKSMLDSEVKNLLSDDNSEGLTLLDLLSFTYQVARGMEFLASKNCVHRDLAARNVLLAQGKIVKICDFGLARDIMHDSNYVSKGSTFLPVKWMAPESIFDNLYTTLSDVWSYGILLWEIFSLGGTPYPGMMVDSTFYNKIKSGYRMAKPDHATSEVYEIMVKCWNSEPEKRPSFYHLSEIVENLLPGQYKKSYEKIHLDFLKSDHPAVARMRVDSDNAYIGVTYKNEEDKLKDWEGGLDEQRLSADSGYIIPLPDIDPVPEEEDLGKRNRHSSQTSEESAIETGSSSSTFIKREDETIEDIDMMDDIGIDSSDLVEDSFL
Sequence of Tyrosine-protein kinase Fyn (Homo sapiens) (P06241 2-537 limits assumed): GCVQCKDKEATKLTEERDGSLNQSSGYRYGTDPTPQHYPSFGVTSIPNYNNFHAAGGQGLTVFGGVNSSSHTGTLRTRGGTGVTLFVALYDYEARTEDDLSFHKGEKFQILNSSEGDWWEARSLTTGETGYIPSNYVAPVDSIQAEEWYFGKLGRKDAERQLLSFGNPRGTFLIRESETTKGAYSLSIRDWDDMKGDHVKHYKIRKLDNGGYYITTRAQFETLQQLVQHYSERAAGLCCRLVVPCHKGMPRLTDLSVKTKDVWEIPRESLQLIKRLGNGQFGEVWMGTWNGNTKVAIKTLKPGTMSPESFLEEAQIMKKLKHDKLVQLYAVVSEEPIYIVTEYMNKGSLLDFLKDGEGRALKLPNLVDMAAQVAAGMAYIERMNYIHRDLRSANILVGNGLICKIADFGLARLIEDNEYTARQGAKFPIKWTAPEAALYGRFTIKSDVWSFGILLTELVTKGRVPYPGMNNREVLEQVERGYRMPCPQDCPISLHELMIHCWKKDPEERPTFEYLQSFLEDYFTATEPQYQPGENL
Sequence of Tyrosine-protein kinase Lyn (Homo sapiens) (P07948 2-512 limits assumed): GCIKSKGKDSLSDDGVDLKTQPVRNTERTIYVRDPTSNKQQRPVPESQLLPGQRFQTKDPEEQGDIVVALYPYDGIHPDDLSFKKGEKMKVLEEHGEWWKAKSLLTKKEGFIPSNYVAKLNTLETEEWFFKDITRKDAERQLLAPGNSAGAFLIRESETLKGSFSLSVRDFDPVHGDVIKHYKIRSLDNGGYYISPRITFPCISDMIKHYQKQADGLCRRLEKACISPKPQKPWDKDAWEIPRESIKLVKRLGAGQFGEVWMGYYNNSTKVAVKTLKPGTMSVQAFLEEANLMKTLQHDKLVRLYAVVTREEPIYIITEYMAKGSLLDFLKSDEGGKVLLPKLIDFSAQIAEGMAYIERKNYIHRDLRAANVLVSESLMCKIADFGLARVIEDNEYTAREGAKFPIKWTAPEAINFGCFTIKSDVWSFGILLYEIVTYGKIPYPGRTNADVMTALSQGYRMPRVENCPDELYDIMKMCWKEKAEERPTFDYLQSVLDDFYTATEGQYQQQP

Question: For `NCCc1ccc(-c2ncnc3[nH]cnc23)cc1`, which inhibition [1] is on record?
Answer: 0%

Question: For `NC1(Cc2ccc(Cl)cc2)CCN(c2ncnc3[nH]ccc23)CC1`, which inhibition [2] is on record?
Answer: 3.5%

Question: And the inhibition [3]?
Answer: 0%

Question: Which inhibition [4] does the source give for `C[C@H](CN(C)C)Oc1nc(Nc2cc3cccc(Cl)c3cn2)cnc1C#N` here?
Answer: 0%

Question: Which results are given for `COC(=O)c1cnc(Nc2cnc(C#N)cn2)cc1NCC1CCNCC1`?
Answer: inhibition [5]: 2%; inhibition [6]: 4%; inhibition [7]: 4.5%

Question: For `c1nc(N2CCOCC2)c2nc[nH]c2n1`, which inhibition [8] is on record?
Answer: 85.5%

Question: What about the inhibition [9] of the same compound?
Answer: 95%

Question: What about the inhibition [10] of the same compound?
Answer: 68%

Question: And the inhibition [11]?
Answer: 62.5%

Question: Which inhibition [12] does the source give for `NCC1CN(c2ncnc3[nH]c4cnccc4c23)CCO1` (configuration not stated) here?
Answer: 14.5%
